The results in this text go back to patent US8541380B2, “C-aryl glucoside SGLT2 inhibitors and pharmaceutical compositions comprising same” (Green Cross Corporation, priority 2009, dated 2013).

Chain of human SGLT2 (P31639 whole entry): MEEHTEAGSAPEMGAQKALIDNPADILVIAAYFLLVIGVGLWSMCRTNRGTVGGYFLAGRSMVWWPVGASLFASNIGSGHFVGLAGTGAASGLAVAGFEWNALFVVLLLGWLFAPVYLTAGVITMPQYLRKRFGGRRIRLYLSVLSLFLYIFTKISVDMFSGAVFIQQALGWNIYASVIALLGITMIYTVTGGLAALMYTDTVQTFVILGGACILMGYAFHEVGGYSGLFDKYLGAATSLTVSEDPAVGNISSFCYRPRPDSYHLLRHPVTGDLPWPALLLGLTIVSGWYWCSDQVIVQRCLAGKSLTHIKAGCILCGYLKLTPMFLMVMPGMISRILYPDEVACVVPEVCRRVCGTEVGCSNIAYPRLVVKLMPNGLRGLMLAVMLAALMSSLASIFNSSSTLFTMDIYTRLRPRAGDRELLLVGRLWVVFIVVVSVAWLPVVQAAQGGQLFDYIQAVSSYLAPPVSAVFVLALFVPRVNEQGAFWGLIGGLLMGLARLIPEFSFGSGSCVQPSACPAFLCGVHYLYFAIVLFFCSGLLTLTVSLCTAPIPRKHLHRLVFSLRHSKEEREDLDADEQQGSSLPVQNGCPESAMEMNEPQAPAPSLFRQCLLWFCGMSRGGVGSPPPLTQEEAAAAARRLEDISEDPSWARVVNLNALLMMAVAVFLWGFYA

The experiment deals with human SGLT2 (Homo sapiens (Human), UniProt P31639). Description: hSGLT2 inhibitory activity, sodium-dependent 14C-AMG glucose transport assay in CHO cells expressing hSGLT2. The format is cell-based. The note with it: 14C-AMG uptake, CHO cells expressing hSGLT2, 37° C. for 2 h. An excerpt:
Human SGLT2 (hSGLT2) gene was amplified by PCR from cDNA-Human Adult Normal Tissue Kidney (Invitrogen, Carlsbad, Calif.). The hSGLT2 sequence was cloned into pcDNA3.1(+) for mammalian expression and were stably transfected into Chinese hamster ovary (CHO) cells. SGLT2-expressing clones were selected based on resistance to G418 antibiotic (Geneticin®, Invitrogen, Carlsbad, Calif.) and activity in the ^14C-α-methyl-D-glucopyranoside (^14C-AMG) uptake assay.
For sodium-dependent glucose transport assay, cells expressing hSGLT2 were seeded into a 96-well culture plate at a density of 5×10^4 cells/well in RPMI medium 1640 containing 10% fetal bovine serum. The cells were used 1 day after plating. They were incubated in pretreatment buffer (10 mM HEPES, 5 mM Tris, 140 mM choline chloride, 2 mM KCl, 1 mM CaCl2, and 1 mM MgCl2, pH 7.4) at 37° C. for 10 min. They were then incubated in uptake buffer (10 mM HEPES, 5 mM Tris, 140 mM NaCl, 2 mM KCl, 1 mM CaCl2, 1 mM MgCl2, and 1 mM ^14C-nonlabeled AMG pH 7.4) containing ^14C-labeled (8 uM) and inhibitor or dimethyl sulfoxide (DMSO) vehicle at 37° C. for 2 h. Cells were washed twice with washing buffer (pretreatment buffer containing 10 mM AMG at room temperature) and then the radioactivity was measured using a liquid scintillation counter.
For the molecule `CCCc1ccc(Cc2cc([C@@H]3O[C@H](CO)[C@@H](O)[C@H](O)[C@H]3O)ccc2Cl)nn1` [Example 74, (2S,3R,4R,5S,6R)-2-(4-Chloro-3-((6-propylpyridazin-3-yl)methyl)phenyl)-6-(hydroxymethyl)-tetrahydro-2H-pyran-3,4,5-triol], the IC50 is 237 nM.
The figure for `OC[C@H]1O[C@@H](c2ccc(Cl)c(Cc3ccc(-c4ccc5c(c4)OCO5)nn3)c2)[C@H](O)[C@@H](O)[C@@H]1O` [Example 67, (2S,3R,4R,5S,6R)-2-(3-((6-(Benzo[d][1,3]dioxol-5-yl)pyridazin-3-yl)methyl)-4-chlorophenyl)-6-(hydroxymethyl)-tetrahydro-2H-pyran-3,4,5-triol] is 82.7 nM; for `OC[C@H]1O[C@@H](c2ccc(Cl)c(Cc3nnc(-c4ccc(Cl)cc4)s3)c2)[C@H](O)[C@@H](O)[C@@H]1O` [Example 29, (2S,3R,4R,5S,6R)-2-(4-chloro-3-((5-(4-Chlorophenyl)-1,3,4-thiadiazol-2-yl)methyl)phenyl)-6-(hydroxymethyl)-tetrahydro-2H-pyran-3,4,5-triol] it is 126 nM; for `OC[C@H]1O[C@@H](c2ccc(Cl)c(Cc3nnc(-c4ccc5ccccc5n4)s3)c2)[C@H](O)[C@@H](O)[C@@H]1O` [Example 17, (2S,3R,4R,5S,6R)-2-(4-Chloro-3-((5-(quinolin-2-yl)-1,3,4-thiadiazol-2-yl)methyl)phenyl)-6-(hydroxymethyl)-tetrahydro-2H-pyran-3,4,5-triol] it is 562 nM.
The figure for `OC[C@H]1O[C@@H](c2ccc(Cl)c(Cc3ccc(OC4CCCCC4)nn3)c2)[C@H](O)[C@@H](O)[C@@H]1O` [Example 59, (2S,3R,4R,5S,6R)-2-(4-Chloro-3-((6-(cyclohexyloxy)pyridazin-3-yl)methyl)phenyl)-6-(hydroxymethyl)-tetrahydro-2H-pyran-3,4,5-triol] is 111 nM; for `OC[C@H]1O[C@@H](c2ccc(Cl)c(Cc3nnc(-c4ccc(Cl)s4)s3)c2)[C@H](O)[C@@H](O)[C@@H]1O` [Example 8, (2S,3R,4R,5S,6R)-2-(4-Chloro-3-((5-(5-chlorothiophen-2-yl)-1,3,4-thiadiazol-2-yl)methyl)phenyl)-6-(hydroxymethyl)-tetrahydro-2H-pyran-3,4,5-triol] it is 18.2 nM.
Take `COc1nnc(Cc2cc([C@@H]3O[C@H](CO)[C@@H](O)[C@H](O)[C@H]3O)ccc2Cl)s1` [Example 41, (2S,3R,4R,5S,6R)-2-(4-Chloro-3-((5-methoxy-1,3,4-thiadiazol-2-yl)methyl)phenyl)-6-(hydroxymethyl)-tetrahydro-2H-pyran-3,4,5-triol]: it took 146 nM to reach half-maximal inhibition (IC50).
The figure for `OC[C@H]1O[C@@H](c2ccc(Cl)c(Cc3nccnn3)c2)[C@H](O)[C@@H](O)[C@@H]1O` [Example 89, (2S,3R,4R,5S,6R)-2-(3-((1,2,4-triazin-3-yl)methyl)-4-chlorophenyl)-6-(hydroxymethyl)tetrahydro-2H-pyran-3,4,5-triol] is 261 nM; for `OC[C@H]1O[C@@H](c2cc(Cc3nnc(-c4ccco4)s3)cc3ccccc23)[C@H](O)[C@@H](O)[C@@H]1O` [Example 92, (2S,3R,4R,5S,6R)-2-(3-((5-(Furan-2-yl)-1,3,4-thiadiazol-2-yl)methyl)naphthalene-1-yl)-6-(hydroxymethyl)-tetrahydro-2H-pyran-3,4,5-triol] it is 88.9 nM; for `OC[C@H]1O[C@@H](c2ccc(Cl)c(Cc3nnc(-c4cc5ccccc5s4)s3)c2)[C@H](O)[C@@H](O)[C@@H]1O` [Example 6, (2S,3R,4R,5S,6R)-2-(3-((5-(Benzo[b]thiophen-2-yl)-1,3,4-thiadiazol-2-yl)methyl)-4-chlorophenyl)-6-(hydroxymethyl)-tetrahydro-2H-pyran-3,4,5-triol] it is 44.5 nM.
On to `OC[C@H]1OC(c2ccc(Cl)c(Cc3nnc(/C=C/c4ccccc4)s3)c2)[C@H](O)[C@@H](O)[C@@H]1O` (stereo partly drawn) [Example 27, (3R,4R,5S,6R,E)-2-(4-Chloro-3-((5-styryl-1,3,4-thiadiazol-2-yl)methyl)phenyl)-6-(hydroxymethyl)-tetrahydro-2H-pyran-3,4,5-triol], for which it took 730 nM to reach half-maximal inhibition (IC50).
The figure for `CCCCCc1nnc(Cc2cc([C@@H]3O[C@H](CO)[C@@H](O)[C@H](O)[C@H]3O)ccc2Cl)s1` [Example 33, (2S,3R,4R,5S,6R)-2-(4-Chloro-3-((5-pentyl-1,3,4-thiadiazol-2-yl)methyl)phenyl)-6-(hydroxymethyl)-tetrahydro-2H-pyran-3,4,5-triol] is 353 nM; for `COc1cnc(Cc2cc([C@@H]3O[C@H](CO)[C@@H](O)[C@H](O)[C@H]3O)ccc2Cl)nn1` [Example 91, (2S,3R,4R,5S,6R)-2-(4-Chloro-3-((6-methoxy-1,2,4-triazin-3-yl)methyl)phenyl)-6-(hydroxymethyl)tetrahydro-2H-pyran-3,4,5-triol] it is 24.9 nM.
For `CSc1nnc(Cc2cc([C@@H]3O[C@H](CO)[C@@H](O)[C@H](O)[C@H]3O)ccc2Cl)cc1C` [Example 82, (2S,3R,4R,5S,6R)-2-(4-Chloro-3-((5-methyl-6-(methylthio)pyridazin-3-yl)methyl)phenyl)-6-(hydroxymethyl)tetrahydro-2H-pyran-3,4,5-triol] the value was 1520 nM; for `OC[C@H]1O[C@@H](c2ccc(Cl)c(Cc3nncc(-c4ccccc4)n3)c2)[C@H](O)[C@@H](O)[C@@H]1O` [Example 90, (2S,3R,4R,5S,6R)-2-(4-Chloro-3-((5-phenyl-1,2,4-triazin-3-yl)methyl)phenyl)-6-(hydroxymethyl)tetrahydro-2H-pyran-3,4,5-triol], 402 nM; for `OC[C@H]1O[C@@H](c2ccc(Cl)c(Cc3nnc(-c4ccc(-c5ccccc5)o4)s3)c2)[C@H](O)[C@@H](O)[C@@H]1O` [Example 37, (2S,3R,4R,5S,6R)-2-(4-Chloro-3-((5-(5-phenylfuran-2-yl)-1,3,4-thiadiazol-2-yl)methyl)phenyl)-6-(hydroxymethyl)-tetrahydro-2H-pyran-3,4,5-triol], 10.6 nM.
For `OC[C@H]1O[C@@H](c2ccc(Cl)c(Cc3nnc(-c4cnccn4)s3)c2)[C@H](O)[C@@H](O)[C@@H]1O` [Example 42, (2S,3R,4R,5S,6R)-2-(4-Chloro-3-((5-(pyrazin-2-yl)-1,3,4-thiadiazol-2-yl)methyl)phenyl)-6-(hydroxymethyl)-tetrahydro-2H-pyran-3,4,5-triol] the value was 4.06 nM; for `OC[C@H]1O[C@@H](c2ccc(Cl)c(Cc3ccc(N4CCOCC4)nn3)c2)[C@H](O)[C@@H](O)[C@@H]1O` [Example 84, (2S,3R,4R,5S,6R)-2-(4-Chloro-3-((6-morpholinopyridazin-3-yl)methyl)phenyl)-6-(hydroxymethyl)-tetrahydro-2H-pyran-3,4,5-triol], 700 nM.
Take `CCCCCOc1ccc(Cc2cc([C@@H]3O[C@H](CO)[C@@H](O)[C@H](O)[C@H]3O)ccc2Cl)nn1` [Example 54, (2S,3R,4R,5S,6R)-2-(4-Chloro-3-((6-(pentyloxy)pyridazin-3-yl)methyl)phenyl)-6-(hydroxymethyl)-tetrahydro-2H-pyran-3,4,5-triol]: the IC50 was found to be 17 nM.
For `OC[C@H]1O[C@@H](c2ccc(Cl)c(Cc3nnc(-c4cnc(-c5ccncc5)s4)s3)c2)[C@H](O)[C@@H](O)[C@@H]1O` [Example 14, (2S,3R,4R,5S,6R)-2-(4-Chloro-3-((5-(2-(pyridin-4-yl)thiazol-5-yl)-1,3,4-thiadiazol-2-yl)methyl)phenyl)-6-(hydroxymethyl)-tetrahydro-2H-pyran-3,4,5-triol] the value was 72.6 nM; for `OC[C@H]1O[C@@H](c2cc(Cc3nnc(-c4ccco4)s3)c3ccccc3c2)[C@H](O)[C@@H](O)[C@@H]1O` [Example 95, (2S,3R,4R,5S,6R)-2-(4-((5-(Furan-2-yl)-1,3,4-thiadiazol-2-yl)methyl)naphthalen-2-yl)-6-(hydroxymethyl)-tetrahydro-2H-pyran-3,4,5-triol], 323 nM.
The figure for `OC[C@H]1O[C@@H](c2cc(Cc3nnc(-c4ccco4)s3)c(O)c3ccccc23)[C@H](O)[C@@H](O)[C@@H]1O` [Example 94, (2S,3R,4R,5S,6R)-2-(3-((5-(Furan-2-yl)-1,3,4-thiadiazol-2-yl)methyl)-4-hydroxynaphthalen-1-yl)-6-(hydroxymethyl)-tetrahydro-2H-pyran-3,4,5-triol] is 24.8 nM; for `OC[C@H]1O[C@@H](c2ccc(Cl)c(Cc3nnc(-c4ccnnc4)s3)c2)[C@H](O)[C@@H](O)[C@@H]1O` [Example 43, (2S,3R,4R,5S,6R)-2-(4-Chloro-3-((5-(pyridazin-4-yl)-1,3,4-thiadiazol-2-yl)methyl)phenyl)-6-(hydroxymethyl)-tetrahydro-2H-pyran-3,4,5-triol] it is 190 nM.
For `OC[C@H]1O[C@@H](c2ccc(Cl)c(Cc3nnc(-c4ccoc4)s3)c2)[C@H](O)[C@@H](O)[C@@H]1O` [Example 4, (2S,3R,4R,5S,6R)-2-(4-Chloro-3-((5-(furan-3-yl)-1,3,4-thiadiazol-2-yl)methyl)phenyl)-6-(hydroxymethyl)tetrahydro-2H-pyran-3,4,5-triol] the value was 17.7 nM.
